24 molecules from patent US12312370B2, “Immunoproteasome inhibitors” (Principia Biopharma Inc., priority 2017, dated 2025) can be followed below.

Structures are written as SMILES.

For assay [1], the target named is constitutive proteasome β5c unit (Homo sapiens, UniProt P28074). The assay is described as follows: Caliper-based proteasome enzymatic activity assay, β5c. The format is biochemical. The conditions noted are these: human recombinant constitutive proteasome 0.3 nM, FAM-labeled peptide substrate 1 μM, rt 3 h; read-out: β5c subunit IC50.
Assay [2] concerns the target immunoproteasome LMP7/B5i subunit (Homo sapiens, UniProt P28062). In words: Caliper-based proteasome enzymatic activity assay, LMP7. The format is biochemical. The conditions noted are these: human recombinant immunoproteasome 0.3 nM, FAM-labeled peptide substrate 1 μM, rt 3 h; read-out: LMP7 subunit IC50.

A word on the IC50: it is the concentration needed to halve the response being measured. `CC(C)(C=C(C#N)C(=O)N1C2CCC1(COC(=O)N[C@@H](Cc1ccc(F)cc1)B(O)O)CC2)N1CCOCC1` [Example 82, (R)-(1-((((7-(2-cyano-4-methyl-4-morpholinopent-2-enoyl)-7-azabicyclo[2.2.1]heptan-1-yl)methoxy)carbonyl)amino)-2-(4-fluorophenyl)ethyl)boronic acid]: the IC50 in assay [1] stood at 1380 nM; in assay [2] it was 1.7 nM.

Regarding `CC(C)(C=C(C#N)C(=O)N1C2CCC1(COC(=O)N[C@@H](CCc1ccccc1)B(O)O)CC2)N1CCC(F)(F)C1` [Example 77, (R)-(1-((((7-(2-cyano-4-(3,3-difluoropyrrolidin-1-yl)-4-methylpent-2-enoyl)-7-azabicyclo[2.2.1]heptan-1-yl)methoxy)carbonyl)amino)-3-phenylpropyl)boronic acid], the IC50 in assay [1] stood at 3280 nM; in assay [2], 0.9 nM.

`CC(C)C=C(C#N)C(=O)NCCCC[C@H](NC(=O)c1cccc(O)n1)C(=O)N[C@@H](CC(C)C)B(O)O` [Example 7, ((R)-1-((S)-6-(2-cyano-4-methylpent-2-enamido)-2-(6-hydroxypicolinamido)hexanamido)-3-methylbutyl)boronic acid]: the results for the IC50 in assay [1] and in assay [2] were 1 nM and 1.3 nM, respectively.

As for `CC(C)C=C(C#N)C(=O)NCCCC[C@H](NC(=O)[C@@H](NC(=O)C(C)C)[C@@H](C)O)C(=O)N[C@@H](CC(C)C)B(O)O` [Example 9, ((R)-1-((S)-6-(2-cyano-4-methylpent-2-enamido)-2-((2S,3R)-3-hydroxy-2-isobutyramidobutanamido)hexanamido)-3-methylbutyl)boronic acid], the values for the IC50 in assay [1] and in assay [2] were 9.4 nM and 8.2 nM, respectively.

In the case of `CCc1cccc(C[C@H](NC(=O)[C@H](COC[C@H]2CCCN2C(=O)C(C#N)=CC(C)C)NCC(F)(F)F)B(O)O)c1` [Example 30, ((R)-1-((S)-3-(((R)-1-(2-cyano-4-methylpent-2-enoyl)pyrrolidin-2-yl)methoxy)-2-((2,2,2-trifluoroethyl)amino)propanamido)-2-(3-ethylphenyl)ethyl)boronic acid], the IC50 was 1830 nM in assay [1] and 87 nM in assay [2].

For the molecule `C=C(F)C(=O)N1CCC[C@H](OC(=O)N[C@@H](Cc2ccc(F)cc2)B(O)O)C1` [Example 74, ((R)-1-(((((S)-1-(2-fluoroacryloyl)piperidin-3-yl)oxy)carbonyl)amino)-2-(4-fluorophenyl)ethyl)boronic acid], the figures for the IC50 in assay [1] and in assay [2] were 2100 nM and 149 nM, respectively.

Turning to `COC(=O)N1CCN(C(C)(C)C=C(C#N)C(=O)N2CCC[C@H](OC(=O)N[C@@H](CC3=CCCC3)B(O)O)C2)CC1` [Example 120, ((R)-1-(((((S)-1-(2-cyano-4-(4-(methoxycarbonyl)piperazin-1-yl)-4-methylpent-2-enoyl)piperidin-3-yl)oxy)carbonyl)amino)-2-(cyclopent-1-en-1-yl)ethyl)boronic acid], the IC50 in assay [1] was > 5000 nM; in assay [2], 11.6 nM.

On to `CC(C)C=C(C#N)C(=O)N(C)c1cccc(C[C@H](NCC(F)(F)F)C(=O)N[C@@H](CC(C)C)B(O)O)c1` [Example 27, ((R)-1-((S)-3-(3-(2-cyano-N,4-dimethylpent-2-enamido)phenyl)-2-((2,2,2-trifluoroethyl)amino)propanamido)-3-methylbutyl)boronic acid], for which the half-maximal inhibitory concentration (IC50) in assay [1] is 175 nM; in assay [2] it was 72 nM.

Regarding `C[C@@H]1CN(C(C)(C)C=C(C#N)C(=O)N2C3CCC2(COC(=O)N[C@@H](Cc2ccccc2)B(O)O)CC3)CCO1` [Example 118, ((R)-1-((((7-(2-cyano-4-methyl-4-((R)-2-methylmorpholino)pent-2-enoyl)-7-azabicyclo[2.2.1]heptan-1-yl)methoxy)carbonyl)amino)-2-phenylethyl)boronic acid], the IC50 in assay [1] was found to be 1150 nM; in assay [2], 1.9 nM.

Turning to `CC(C)(C=C(C#N)C(=O)N1CCC[C@H](OC(=O)N[C@@H](CC2=CCCC2)B(O)O)C1)N1CCOCC1` [Example 121, ((R)-1-(((((S)-1-(2-cyano-4-methyl-4-morpholinopent-2-enoyl)piperidin-3-yl)oxy)carbonyl)amino)-2-(cyclopent-1 en-1-yl)ethyl)boronic acid], the half-inhibitory concentration (IC50) in assay [1] was > 5000 nM; in assay [2] it was 7.8 nM.

Consider `CC(C)C=C(C#N)C(=O)N(C)c1cccc(C[C@H](NCC(F)(F)F)C(=O)N[C@@H](Cc2ccccc2)B(O)O)c1` [Example 26, ((R)-1-((S)-3-(3-(2-cyano-N,4-dimethylpent-2-enamido)phenyl)-2-((2,2,2-trifluoroethyl)amino)propanamido)-2-phenylethyl)boronic acid], for which the values for the IC50 in assay [1] and in assay [2] were 362 nM and 11 nM, respectively.

`CC(C)(C=C(C#N)C(=O)N1C2CCC1(COC(=O)N[C@@H](Cc1ccccc1)B(O)O)CC2)N1CCOC2(CC2)C1` [Example 116, (R)-(1-((((7-(2-cyano-4-methyl-4-(4-oxa-7-azaspiro[2.5]octan-7-yl)pent-2-enoyl)-7-azabicyclo[2.2.1]heptan-1-yl)methoxy)carbonyl)amino)-2-phenylethyl)boronic acid]: the IC50 in assay [1] came to 753 nM; in assay [2], 1.3 nM.

As to `CC(C)(C=C(C#N)C(=O)N1CC[C@@H](OC(=O)N[C@@H](Cc2ccccc2)B(O)O)C1)N1CCC(F)(F)C1` [Example 90, ((R)-1-(((((R)-1-(2-cyano-4-(3,3-difluoropyrrolidin-1-yl)-4-methylpent-2-enoyl)pyrrolidin-3-yl)oxy)carbonyl)amino)-2-phenylethyl)boronic acid], the figures for the IC50 in assay [1] and in assay [2] were 1590 nM and 3.2 nM, respectively.

Turning to `CC(C)(C=C(C#N)C(=O)N1CC[C@H](OC(=O)N[C@@H](Cc2ccccc2)B(O)O)C1)N1CCC(F)(F)C1` [Example 89, ((R)-1-(((((S)-1-(2-cyano-4-(3,3-difluoropyrrolidin-1-yl)-4-methylpent-2-enoyl)pyrrolidin-3-yl)oxy)carbonyl)amino)-2-phenylethyl)boronic acid], the IC50 in assay [1] was determined as 1140 nM; in assay [2] it was 1.8 nM.

`CC1(C)CN(C(C)(C)C=C(C#N)C(=O)N2C3CCC2(COC(=O)N[C@@H](Cc2ccccc2)B(O)O)CC3)CCO1` [Example 119, (R)-(1-((((7-(2-cyano-4-(2,2-dimethylmorpholino)-4-methylpent-2-enoyl)-7-azabicyclo[2.2.1]heptan-1-yl)methoxy)carbonyl)amino)-2-phenylethyl)boronic acid]: the IC50 in assay [1] came out at 685 nM; in assay [2] it was 1 nM.

Take `CC(C)C=C(C#N)C(=O)NCCCC[C@H](NS(C)(=O)=O)C(=O)N[C@@H](Cc1ccccc1)B(O)O` [Example 12, ((R)-1-((S)-6-(2-cyano-4-methylpent-2-enamido)-2-(methylsulfonamido)hexanamido)-2-phenylethyl)boronic acid]: the IC50 was found to be 21.1 nM in assay [1] and 13.4 nM in assay [2].

On to `CC(C)(C=C(C#N)C(=O)N1CCC[C@H](CC(=O)N[C@@H](Cc2ccccc2)B(O)O)C1)N1CCC(F)(F)C1` [Example 56, ((R)-1-(2-((R)-1-(2-cyano-4-(3,3-difluoropyrrolidin-1-yl)-4-methylpent-2-enoyl)piperidin-3-yl)acetamido)-2-phenylethyl)boronic acid], for which the 50% inhibitory concentration (IC50) came out at 255 nM in assay [1] and 9.9 nM in assay [2].

Consider `CC1(C)CCN(C(C)(C)C=C(C#N)C(=O)N2CCC[C@H](OC(=O)N[C@@H](Cc3ccc(F)cc3)B(O)O)C2)C1` [Example 72, ((R)-1-(((((S)-1-(2-cyano-4-(3,3-dimethylpyrrolidin-1-yl)-4-methylpent-2-enoyl)piperidin-3-yl)oxy)carbonyl)amino)-2-(4-fluorophenyl)ethyl)boronic acid], for which the concentration for half-maximal inhibition (IC50) in assay [1] amounted to 851 nM; in assay [2], 5.4 nM.

For the molecule `CC(C)(C=C(C#N)C(=O)N1CC[C@H](COC(=O)N[C@@H](Cc2ccccc2)B(O)O)C1)N1CCOCC1` [Example 99, ((R)-1-(((((S)-1-(2-cyano-4-methyl-4-morpholinopent-2-enoyl)pyrrolidin-3-yl)methoxy)carbonyl)amino)-2-phenylethyl)boronic acid], the values for the IC50 in assay [1] and in assay [2] were 3760 nM and 19.3 nM, respectively.

With `CC(C)(C)C=C(C#N)C(=O)N1CCC[C@@H]1COC[C@H](NCC(F)(F)F)C(=O)N[C@@H](Cc1ccccc1)B(O)O` [Example 24, (R)-1-((S)-3-(((R)-1-(2-cyano-4,4-dimethylpent-2-enoyl)pyrrolidin-2-yl)methoxy)-2-(2,2,2-trifluoroethylamino)propanamido)-2-phenylethylboronic acid], the figures for the IC50 in assay [1] and in assay [2] were 166 nM and 26 nM, respectively.

Consider `C[C@H]1CN(C(C)(C)C=C(C#N)C(=O)N2C3CCC2(COC(=O)N[C@@H](Cc2ccccc2)B(O)O)CC3)C[C@H](C)O1` [Example 123, ((R)-1-((((7-(2-cyano-4-((2S,6S)-2,6-dimethylmorpholino)-4-methylpent-2-enoyl)-7-azabicyclo[2.2.1]heptan-1-yl)methoxy)carbonyl)amino)-2-phenylethyl)boronic acid], for which the 50% inhibitory concentration (IC50) was found to be 832 nM in assay [1] and 0.9 nM in assay [2].

As for `C=CC(=O)N1CC[C@@H]1COC(=O)N[C@@H](Cc1coc2ccccc12)B(O)O` [Example 62, ((R)-1-(((((R)-1-acryloylazetidin-2-yl)methoxy)carbonyl)amino)-2-(benzofuran-3-yl)ethyl)boronic acid], the IC50 was 126 nM in assay [1] and 2.3 nM in assay [2].

As for `CC(C)C=C(C#N)C(=O)N1CCC[C@@H]1COC[C@H](NCC(F)(F)F)C(=O)N[C@@H](Cc1ccccc1)B(O)O` [Example 23, (R)-1-((S)-3-(((R)-1-(2-cyano-4-methylpent-2-enoyl)pyrrolidin-2-yl)methoxy)-2-(2,2,2-trifluoroethylamino)propanamido)-2-phenylethylboronic acid], the values for the IC50 in assay [1] and in assay [2] were 450 nM and 35 nM, respectively.

As to `C=CC(=O)N1C2CCC1(COC(=O)N[C@@H](CCc1ccccc1)B(O)O)CC2` [Example 71, (R)-(1-((((7-acryloyl-7-azabicyclo[2.2.1]heptan-1-yl)methoxy)carbonyl)amino)-3-phenylpropyl)boronic acid], the IC50 is > 5000 nM in assay [1] and 528 nM in assay [2].
